Test results as given in patent US4356183A, “Antihypertensive 4-thiazolidinecarboxylic acids (pyridyl derivatives)” (Santen Pharmaceutical Co., Ltd., priority 1978, dated 1982).

Biological target: T1, angiotensin I-converting enzyme (Oryctolagus cuniculus, UniProt P12822)
T1 construct: angiotensin I-converting enzyme extracted from rabbit lung; from tissue; host or cells: rabbit lung
T1 sequence (P12822 34-1310): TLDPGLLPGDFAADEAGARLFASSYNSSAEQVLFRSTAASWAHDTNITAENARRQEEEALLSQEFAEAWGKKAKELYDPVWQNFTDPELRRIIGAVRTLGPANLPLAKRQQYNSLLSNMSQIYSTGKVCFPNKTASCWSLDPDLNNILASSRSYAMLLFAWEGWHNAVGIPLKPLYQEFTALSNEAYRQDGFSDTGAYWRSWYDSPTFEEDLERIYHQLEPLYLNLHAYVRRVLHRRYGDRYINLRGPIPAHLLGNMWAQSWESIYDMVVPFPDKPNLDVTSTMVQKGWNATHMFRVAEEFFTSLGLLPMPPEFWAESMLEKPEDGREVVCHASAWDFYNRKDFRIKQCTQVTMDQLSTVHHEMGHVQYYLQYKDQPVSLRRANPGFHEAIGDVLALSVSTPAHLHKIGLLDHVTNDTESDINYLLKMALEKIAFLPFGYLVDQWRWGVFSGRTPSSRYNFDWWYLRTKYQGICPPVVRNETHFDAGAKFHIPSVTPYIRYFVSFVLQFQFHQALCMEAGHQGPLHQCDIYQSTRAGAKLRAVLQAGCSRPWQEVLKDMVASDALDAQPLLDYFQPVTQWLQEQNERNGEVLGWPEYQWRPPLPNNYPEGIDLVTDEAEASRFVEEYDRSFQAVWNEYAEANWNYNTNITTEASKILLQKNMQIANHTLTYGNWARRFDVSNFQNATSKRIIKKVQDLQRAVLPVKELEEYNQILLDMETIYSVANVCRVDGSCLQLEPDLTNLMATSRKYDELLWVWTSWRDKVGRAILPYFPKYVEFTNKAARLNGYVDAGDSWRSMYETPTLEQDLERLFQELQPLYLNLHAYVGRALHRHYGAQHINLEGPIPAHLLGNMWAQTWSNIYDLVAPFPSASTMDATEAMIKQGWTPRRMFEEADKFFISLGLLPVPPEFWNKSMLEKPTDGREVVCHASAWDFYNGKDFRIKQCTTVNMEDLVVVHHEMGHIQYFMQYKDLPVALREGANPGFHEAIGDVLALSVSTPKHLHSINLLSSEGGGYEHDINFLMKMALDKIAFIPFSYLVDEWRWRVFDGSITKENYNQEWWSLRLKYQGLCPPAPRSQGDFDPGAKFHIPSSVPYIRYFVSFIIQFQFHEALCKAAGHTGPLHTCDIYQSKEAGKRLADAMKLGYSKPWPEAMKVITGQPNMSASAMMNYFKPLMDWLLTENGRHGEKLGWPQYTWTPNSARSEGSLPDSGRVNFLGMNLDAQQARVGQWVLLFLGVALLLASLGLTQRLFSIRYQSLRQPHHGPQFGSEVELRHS
Assay: Inhibition of angiotensin I-converting enzyme by spectrophotometry (HHL substrate)
Type: biochemical
Details: enzyme from rabbit lung; 5 mM HHL; pH 8.3; 37° C., 30 min

Row | Compound | IC50
1 | COc1ccc(C2SC[C@@H](C(=O)O)N2C(=O)[C@H](C)CS)c(O)c1 (some centres unmarked) [Compound 77] | 190 nM
2 | C[C@H](CS)C(=O)N1C(c2ccccc2O)SC[C@H]1C(=O)O (some centres unmarked) [Compound 50] | 220 nM
